Results on nine compounds are retold here after ChEMBL document CHEMBL3232835, “Discovery of trifluoromethyl(pyrimidin-2-yl)azetidine-2-carboxamides as potent, orally bioavailable TGR5 (GPBAR1) agonists: structure-activity relationships, lead optimization, and chronic in vivo efficacy” (J Med Chem, 2014).

The nature of data set [1]: in vitro. The following applies: human, Caco-2.
Data set [2] in a line: in vitro. The following applies: human, Caco-2. This is another data set of the same source.
A short description of data set [3]: AUC in mouse plasma at 20 mg/kg up to 5 hrs. In kind it is ADME, organism-based. Also noted: time < 5 hr, dose 20 mg/kg.
A short description of data set [4]: AUC in mouse at 5 mg/kg, iv. In kind it is ADME, organism-based. Also on record: dose 5 mg/kg, route intravenous. The following applies: plasma.
The nature of data set [5]: Oral bioavailability in mouse at 20 mg/kg. The following applies: in vivo. Format: ADME, organism-based.
Data set [6] is described as follows: Cmax in mouse at 5 mg/kg, iv. The following applies: in vivo. In kind it is ADME, organism-based. Also noted: dose 5 mg/kg, route intravenous.
The nature of data set [7]: Volume of distribution at steady state in mouse at 5 mg/kg, iv. The following applies: in vivo, read-out: Vdss. Also on record: dose 5 mg/kg, route intravenous. Format: ADME, organism-based.
A short description of data set [8]: AUC in mouse at 20 mg/kg, po. In kind it is ADME, organism-based. Also noted: dose 20 mg/kg, route oral. The following applies: plasma.
A short description of data set [9]: Cmax in mouse at 20 mg/kg, po. Format: ADME, organism-based. Also noted: dose 20 mg/kg, route oral. The following applies: in vivo.
Data set [10] in a line: Cmax in ob/ob mouse at 30 mg/kg, po qd measured on day 37. In kind it is ADME, organism-based. Also noted: dose 30 mg/kg, route oral. The following applies: in vivo.
The nature of data set [11]: Cmax in ob/ob mouse at 30 mg/kg, po qd measured on day 1. Format: ADME, organism-based. Also on record: dose 30 mg/kg, route oral. The following applies: in vivo.
Data set [12] in a line: AUC in ob/ob mouse at 30 mg/kg, po qd measured on day 37. In kind it is ADME, organism-based. Also noted: dose 30 mg/kg, route oral. The following applies: plasma.
The nature of data set [13]: AUC in ob/ob mouse at 30 mg/kg, po qd measured on day 1. Also on record: dose 30 mg/kg, route oral. In kind it is ADME, organism-based. The following applies: plasma.
The nature of data set [14]: Lipophilicity, log D of the compound at pH 6.8. Format: physicochemical. The following applies: buffer.

A word on the Papp A→B: it is how fast a substance crosses the layer from the apical side. The low end stands for slow passage, the high end for fast passage. A word on the Papp B→A: it is the apparent permeability from the basolateral to the apical side of a cell layer. In general, AUC refers to the area under the concentration-time curve, a measure of exposure. Low readings indicate less exposure, high ones more exposure. What is called bioavailability is the share of a dose that reaches the circulation, judged against a reference dose that is usually intravenous. Low values mean poor availability, high ones good availability. The term Cmax denotes the peak of the concentration-time curve. By logD is commonly meant lipophilicity at a set pH, counting ionised and neutral species.

Regarding `N#Cc1ccc(CCNC(=O)[C@@H]2CCCN(c3cc(N4CCC(C(=O)O)CC4)nc(C(F)(F)F)n3)C2)cc1`, in “in vitro [1]”, the Papp A→B stood at 1.36 ×10⁻⁶ cm/s. In the data set “in vitro [2]”, this compound came in with a Papp B→A of 13 ×10⁻⁶ cm/s. For the same compound, the AUC at 5 h in data set [3] is 0.108 µM·h.
In data set [3], `N#Cc1ccc(CCNC(=O)[C@@H]2CCN2c2cc(N3CCC(Oc4ccc(C(=O)O)cc4)CC3)nc(C(F)(F)F)n2)cc1` came in with an AUC at 5 h of 7.53 µM·h.
`N#Cc1ccc(CCNC(=O)[C@@H]2CCN2c2cc(-c3ccc(-c4ccc(C(=O)O)cc4)cc3)nc(C(F)(F)F)n2)cc1` returned an exposure (AUC) at 5 h in data set [3] of 13.9 µM·h.
In “in vitro [1]”, `COc1cc(C2CCN(c3cc(N4CC[C@H]4C(=O)NCCc4ccc(C#N)cc4)nc(C(F)(F)F)n3)CC2)ccc1C(=O)O` displayed a Papp A→B of 2.7 ×10⁻⁶ cm/s. Besides, in “in vitro [2]”, the Papp B→A was 12.9 ×10⁻⁶ cm/s. This compound returned an AUC at 5 h in data set [3] of 3.74 µM·h.
Consider `CN1CCN(c2cc(N3CCC[C@@H](C(=O)NCCc4ccc(C#N)cc4)C3)nc(C(F)(F)F)n2)CC1`, for which the AUC amounted to 2.67 µM·h in data set [4] and 2.54 µM·h in data set [8]. The same compound yielded a bioavailability in data set [5] of 24%. The values for the Cmax in [6] and in [9] were 4.52 µM and 1.07 µM, respectively. In data set [7], the Vd turned out to be 1.6 L/kg.
Regarding `N#Cc1ccc(CCNC(=O)[C@@H]2CCCN(c3cc(N4CCC(Oc5ccc(CC(=O)O)cc5)CC4)nc(C(F)(F)F)n3)C2)cc1`, the Papp A→B in “in vitro [1]” was 2.12 ×10⁻⁶ cm/s. The compound also had a Papp B→A in the data set “in vitro [2]” of 6.4 ×10⁻⁶ cm/s. The AUC at 5 h in data set [3] was 5.02 µM·h.
As to `N#Cc1ccc(CCNC(=O)[C@@H]2CCN2c2cc(N3CCC(Oc4ccc(CC(=O)O)cc4)CC3)nc(C(F)(F)F)n2)cc1`, in data set [3], the AUC at 5 h was found to be 14.2 µM·h.
Regarding `N#Cc1ccc(CCNC(=O)[C@@H]2CCN2c2cc(-c3ccc([C@H]4CC[C@H](C(=O)O)CC4)cc3)nc(C(F)(F)F)n2)cc1`, the exposure (AUC) in data set [4] came out at 13.9 µM·h; in data set [12], 37.5 µM·h; in [13], 45.5 µM·h; in data set [8], 53.8 µM·h. The bioavailability in data set [5] was determined as 96.5%. Moreover, the Cmax in [10] was determined as 5.17 µM; in [6], 12 µM; in [11], 4.77 µM; in data set [9], 9.75 µM. In data set [7], the Vd amounted to 1.31 L/kg. The same compound gave an AUC at 5 h in data set [3] of 11.4 µM·h. The compound further came in with a pH-dependent lipophilicity (logD) in [14] of 2.5.
As to `CC1(C(=O)O)CCN(c2cc(N3CCC[C@@H](C(=O)NCCc4ccc(C#N)cc4)C3)nc(C(F)(F)F)n2)CC1`, the apical-to-basolateral permeability (Papp A→B) in “in vitro [1]” amounted to 1.02 ×10⁻⁶ cm/s. This compound had a Papp B→A in the data set “in vitro [2]” of 13.5 ×10⁻⁶ cm/s. Besides, the AUC at 5 h in data set [3] amounted to 1.05 µM·h.
